Experimental data as given in ChEMBL document CHEMBL4011614 (J Med Chem, 2017).
Active and inactive are the calls of the source. The rule behind the calls is not given here.

What was measured:
Homo sapiens = species: Homo sapiens; experiment: Selectivity ratio of IC50 for BRD4 (unknown origin) to IC50 for CREBBP (unknown origin)
[1] = target: T1, Bromodomain-containing protein 4 (Homo sapiens, UniProt O60885); experiment: Inhibition of BRD4 (unknown origin) by fluorescence polarization assay
CREB-binding protein = CREB-binding protein (Homo sapiens, UniProt Q92793); experiment: Inhibition of CREBBP (unknown origin) by FRET assay
Chain of CREB-binding protein (Q92793 whole entry): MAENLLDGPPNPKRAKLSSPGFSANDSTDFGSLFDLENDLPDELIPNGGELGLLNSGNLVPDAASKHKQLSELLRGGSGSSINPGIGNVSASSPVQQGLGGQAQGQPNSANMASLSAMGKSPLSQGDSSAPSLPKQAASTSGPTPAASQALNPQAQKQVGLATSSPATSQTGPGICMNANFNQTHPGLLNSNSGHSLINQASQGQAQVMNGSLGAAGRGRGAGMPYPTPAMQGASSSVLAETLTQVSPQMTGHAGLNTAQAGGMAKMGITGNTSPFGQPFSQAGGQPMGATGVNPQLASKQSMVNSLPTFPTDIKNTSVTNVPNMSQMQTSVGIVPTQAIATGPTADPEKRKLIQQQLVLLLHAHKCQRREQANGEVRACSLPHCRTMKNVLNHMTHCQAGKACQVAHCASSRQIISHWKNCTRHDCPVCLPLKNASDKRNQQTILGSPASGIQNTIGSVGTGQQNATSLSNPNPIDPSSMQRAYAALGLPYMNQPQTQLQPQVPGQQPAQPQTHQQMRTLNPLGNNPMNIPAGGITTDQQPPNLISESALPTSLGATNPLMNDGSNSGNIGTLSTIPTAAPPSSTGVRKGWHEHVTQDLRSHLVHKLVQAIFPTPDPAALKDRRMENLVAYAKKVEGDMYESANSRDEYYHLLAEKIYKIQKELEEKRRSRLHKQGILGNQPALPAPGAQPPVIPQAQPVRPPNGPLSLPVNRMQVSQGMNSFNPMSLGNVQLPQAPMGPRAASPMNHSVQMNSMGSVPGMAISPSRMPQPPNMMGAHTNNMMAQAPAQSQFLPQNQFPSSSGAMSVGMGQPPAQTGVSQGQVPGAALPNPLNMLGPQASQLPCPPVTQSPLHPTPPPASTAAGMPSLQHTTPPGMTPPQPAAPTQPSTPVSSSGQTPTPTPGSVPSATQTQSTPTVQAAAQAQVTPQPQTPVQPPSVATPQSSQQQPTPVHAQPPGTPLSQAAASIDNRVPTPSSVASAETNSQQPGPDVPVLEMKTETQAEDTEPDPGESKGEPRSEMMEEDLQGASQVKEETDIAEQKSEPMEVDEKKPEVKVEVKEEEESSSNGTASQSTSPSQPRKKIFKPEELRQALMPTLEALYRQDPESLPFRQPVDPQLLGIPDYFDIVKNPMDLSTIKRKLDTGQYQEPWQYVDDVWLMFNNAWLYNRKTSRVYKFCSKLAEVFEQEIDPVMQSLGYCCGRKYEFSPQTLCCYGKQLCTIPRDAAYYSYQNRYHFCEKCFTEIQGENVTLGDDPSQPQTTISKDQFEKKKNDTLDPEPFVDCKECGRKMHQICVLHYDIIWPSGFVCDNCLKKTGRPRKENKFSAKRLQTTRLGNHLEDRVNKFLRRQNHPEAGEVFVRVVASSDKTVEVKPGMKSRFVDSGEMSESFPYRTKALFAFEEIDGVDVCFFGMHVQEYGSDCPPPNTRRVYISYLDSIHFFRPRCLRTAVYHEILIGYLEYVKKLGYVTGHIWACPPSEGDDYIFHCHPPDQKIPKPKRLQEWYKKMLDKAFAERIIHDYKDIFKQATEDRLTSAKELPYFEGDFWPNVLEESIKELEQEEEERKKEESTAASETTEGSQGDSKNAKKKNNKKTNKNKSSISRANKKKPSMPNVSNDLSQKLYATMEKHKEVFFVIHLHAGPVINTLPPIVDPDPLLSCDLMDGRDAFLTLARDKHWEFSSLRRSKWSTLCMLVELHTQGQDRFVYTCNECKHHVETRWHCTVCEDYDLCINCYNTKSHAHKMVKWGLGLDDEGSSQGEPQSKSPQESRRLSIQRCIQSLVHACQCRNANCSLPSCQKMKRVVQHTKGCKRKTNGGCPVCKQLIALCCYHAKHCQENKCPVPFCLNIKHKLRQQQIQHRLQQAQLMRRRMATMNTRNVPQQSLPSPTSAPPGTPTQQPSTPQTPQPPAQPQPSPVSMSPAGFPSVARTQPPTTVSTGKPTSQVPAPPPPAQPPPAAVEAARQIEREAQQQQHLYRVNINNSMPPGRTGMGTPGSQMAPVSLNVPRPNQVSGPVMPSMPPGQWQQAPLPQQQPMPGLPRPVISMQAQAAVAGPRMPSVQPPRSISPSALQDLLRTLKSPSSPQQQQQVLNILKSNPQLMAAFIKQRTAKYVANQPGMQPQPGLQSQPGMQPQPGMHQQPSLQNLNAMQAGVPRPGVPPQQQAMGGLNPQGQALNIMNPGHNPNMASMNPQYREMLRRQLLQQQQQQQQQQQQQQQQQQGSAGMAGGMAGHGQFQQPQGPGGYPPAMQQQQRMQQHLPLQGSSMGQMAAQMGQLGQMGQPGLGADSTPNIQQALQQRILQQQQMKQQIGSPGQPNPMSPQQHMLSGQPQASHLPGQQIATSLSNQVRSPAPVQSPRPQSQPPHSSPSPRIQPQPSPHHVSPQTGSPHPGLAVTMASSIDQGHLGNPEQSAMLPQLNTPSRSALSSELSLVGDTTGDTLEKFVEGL

[2] = Lipophilicity, log D of the compound at pH 7.4 by shake flask method; format: physicochemical; settings: buffer
[3] = target: Histone acetyltransferase p300 (Homo sapiens) (UniProt Q09472); experiment: Inhibition of human EP300 (1040 to 1161 residues) expressed in bacterial expression system at 10 uM by bromoscan assay
Chain of Histone acetyltransferase p300 (Homo sapiens) (Q09472 whole entry, the tested form may be a part): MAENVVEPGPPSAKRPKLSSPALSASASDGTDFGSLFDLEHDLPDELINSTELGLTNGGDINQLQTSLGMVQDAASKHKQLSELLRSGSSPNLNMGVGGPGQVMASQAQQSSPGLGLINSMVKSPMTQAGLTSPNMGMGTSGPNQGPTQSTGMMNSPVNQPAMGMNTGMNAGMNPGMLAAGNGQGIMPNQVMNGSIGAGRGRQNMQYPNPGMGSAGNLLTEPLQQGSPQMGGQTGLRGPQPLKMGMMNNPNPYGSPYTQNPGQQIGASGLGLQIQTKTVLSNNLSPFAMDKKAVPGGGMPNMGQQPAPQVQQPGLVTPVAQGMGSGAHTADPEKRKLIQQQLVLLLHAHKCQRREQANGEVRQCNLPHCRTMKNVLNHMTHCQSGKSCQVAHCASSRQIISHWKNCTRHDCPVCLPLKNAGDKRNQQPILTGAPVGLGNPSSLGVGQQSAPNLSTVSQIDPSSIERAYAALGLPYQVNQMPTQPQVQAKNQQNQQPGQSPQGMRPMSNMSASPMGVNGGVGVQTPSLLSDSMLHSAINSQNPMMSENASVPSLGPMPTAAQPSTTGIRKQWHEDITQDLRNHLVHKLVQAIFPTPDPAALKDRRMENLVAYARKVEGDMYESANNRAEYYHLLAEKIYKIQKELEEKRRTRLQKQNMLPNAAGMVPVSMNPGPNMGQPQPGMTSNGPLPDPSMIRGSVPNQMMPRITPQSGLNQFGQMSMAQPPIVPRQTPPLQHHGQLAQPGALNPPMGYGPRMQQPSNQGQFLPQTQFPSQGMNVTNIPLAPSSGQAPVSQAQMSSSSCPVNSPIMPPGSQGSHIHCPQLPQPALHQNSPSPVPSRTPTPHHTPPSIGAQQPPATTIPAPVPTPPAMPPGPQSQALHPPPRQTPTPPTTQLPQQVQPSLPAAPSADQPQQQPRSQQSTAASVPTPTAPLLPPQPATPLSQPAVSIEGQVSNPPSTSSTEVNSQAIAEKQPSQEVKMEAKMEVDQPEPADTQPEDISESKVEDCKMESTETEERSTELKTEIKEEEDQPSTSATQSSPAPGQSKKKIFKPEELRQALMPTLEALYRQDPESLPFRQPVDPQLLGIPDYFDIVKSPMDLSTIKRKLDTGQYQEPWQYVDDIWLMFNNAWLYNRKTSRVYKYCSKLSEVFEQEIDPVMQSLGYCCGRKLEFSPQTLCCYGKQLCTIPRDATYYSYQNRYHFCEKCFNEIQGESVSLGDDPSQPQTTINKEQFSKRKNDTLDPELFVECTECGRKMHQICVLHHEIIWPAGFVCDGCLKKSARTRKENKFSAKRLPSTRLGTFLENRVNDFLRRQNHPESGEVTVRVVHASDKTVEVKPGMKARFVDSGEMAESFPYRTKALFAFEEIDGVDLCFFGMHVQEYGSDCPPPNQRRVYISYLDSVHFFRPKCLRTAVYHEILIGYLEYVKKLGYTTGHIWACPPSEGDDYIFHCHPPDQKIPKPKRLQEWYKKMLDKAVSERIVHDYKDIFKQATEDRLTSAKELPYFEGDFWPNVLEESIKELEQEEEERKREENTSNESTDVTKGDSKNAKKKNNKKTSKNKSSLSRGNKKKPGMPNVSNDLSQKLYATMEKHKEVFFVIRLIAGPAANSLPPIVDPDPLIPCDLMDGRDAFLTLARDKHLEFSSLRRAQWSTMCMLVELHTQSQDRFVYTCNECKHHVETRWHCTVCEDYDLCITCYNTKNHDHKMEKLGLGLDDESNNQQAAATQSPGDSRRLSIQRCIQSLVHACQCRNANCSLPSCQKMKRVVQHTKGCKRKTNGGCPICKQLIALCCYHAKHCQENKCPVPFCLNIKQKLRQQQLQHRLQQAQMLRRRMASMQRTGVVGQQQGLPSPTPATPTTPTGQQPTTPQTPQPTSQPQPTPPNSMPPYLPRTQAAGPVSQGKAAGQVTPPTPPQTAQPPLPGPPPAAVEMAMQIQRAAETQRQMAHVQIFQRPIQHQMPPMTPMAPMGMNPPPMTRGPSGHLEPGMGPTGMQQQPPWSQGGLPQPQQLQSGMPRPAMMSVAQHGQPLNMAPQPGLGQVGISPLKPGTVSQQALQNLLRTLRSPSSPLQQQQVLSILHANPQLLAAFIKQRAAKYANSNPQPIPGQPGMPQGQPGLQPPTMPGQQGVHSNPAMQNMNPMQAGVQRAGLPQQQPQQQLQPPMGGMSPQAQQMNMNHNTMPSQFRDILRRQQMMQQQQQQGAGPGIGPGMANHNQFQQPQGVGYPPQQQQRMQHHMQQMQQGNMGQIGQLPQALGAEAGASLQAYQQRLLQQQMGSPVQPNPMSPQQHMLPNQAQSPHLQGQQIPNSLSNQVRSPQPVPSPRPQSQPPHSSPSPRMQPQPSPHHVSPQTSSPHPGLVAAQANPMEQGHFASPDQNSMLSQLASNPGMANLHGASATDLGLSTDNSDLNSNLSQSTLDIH

[4] = Passive permeability of the compound at 2 uM by cell-based assay; format: physicochemical; settings: not told; read-out: permeability
[5] = Intrinsic clearance in human microsomes at 1 uM; format: ADME, Microsome
[6] = target: T1, Bromodomain-containing protein 4; experiment: Binding affinity to BRD4 (unknown origin) at 75 to 100 uM by isothermal titration assay
[7] = target: Voltage-gated L-type calcium channel (Homo sapiens, UniProt Q13936+Q13698+Q01668+O60840); experiment: Inhibition of L-type calcium channel (unknown origin)
[8] = target: T2, Alpha-1A adrenergic receptor (Homo sapiens, UniProt P35348); experiment: Displacement of [3H]prazosin from recombinant human adrenergic A1a receptor after 60 mins by scintillation counting method
T2 sequence (P35348 whole entry): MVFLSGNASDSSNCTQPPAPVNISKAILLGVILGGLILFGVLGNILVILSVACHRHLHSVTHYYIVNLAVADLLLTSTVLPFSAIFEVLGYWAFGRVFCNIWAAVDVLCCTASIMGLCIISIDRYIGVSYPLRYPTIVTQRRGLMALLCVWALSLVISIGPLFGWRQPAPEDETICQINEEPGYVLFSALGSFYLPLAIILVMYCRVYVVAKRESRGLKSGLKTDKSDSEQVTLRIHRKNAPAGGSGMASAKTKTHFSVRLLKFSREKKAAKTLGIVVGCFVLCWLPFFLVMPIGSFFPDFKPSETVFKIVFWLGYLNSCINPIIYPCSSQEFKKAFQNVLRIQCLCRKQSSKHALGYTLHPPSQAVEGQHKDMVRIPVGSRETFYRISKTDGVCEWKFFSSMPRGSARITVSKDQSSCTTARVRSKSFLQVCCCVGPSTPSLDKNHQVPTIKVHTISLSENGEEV

[9] = target: T1, Bromodomain-containing protein 4; experiment: Inhibition of human BRD4 by fluorescence polarization assay

Structure (SMILES)	Ratio IC50 (Homo sapiens)	IC50 [1]	IC50 (CREB-binding protein)	further results
COc1ccc(CCc2cc3nc(-c4c(C)noc4C)ccc3n2CCN2CCOCC2)cc1	> 100	18.4 µM	170 nM	logD [2]: 3.29; inhibition [3]: Active; Papp at 2 µM [4]: 6.8 ×10⁻⁶ cm/s
CCCOc1ccc(CCc2nc3cc(-c4c(C)noc4C)ccc3n2CCN2CCOCC2)cc1	62	–	–	microsomal CLint at 1 µM [5]: > 300 µL/min/mg; Activity [6]: inactive; IC50 [7]: 3 µM; IC50 [8]: 620 nM; inhibition [3]: Active; Papp at 2 µM [4]: 7.9 ×10⁻⁶ cm/s
Cc1noc(C)c1-c1ccc2c(c1)nc(CCc1ccc(OC(F)(F)F)cc1)n2CCN1CCOCC1	–	18.5 µM	–	–
COc1cc(-c2ccc3c(c2)nc(CCc2ccccc2)n3CCN2CCOCC2)cccc1=O	–	0.35 µM	210 nM	–
Cc1noc(C)c1-c1ccc2c(c1)nc(CCc1c[nH]c3ccccc13)n2CCN1CCOCC1	14	10.1 µM	740 nM	–
COc1ccc(OCc2nc3cc(-c4c(C)noc4C)ccc3n2CCN2CCOCC2)cc1	10	9.2 µM	920 nM	–
CCOc1ccc(CCc2nc3cc(-c4c(C)noc4C)ccc3n2CCN2CCOCC2)cc1	51	6.6 µM	130 nM	–
Cc1noc(C)c1-c1ccc2c(c1)nc1n2[C@H](CN2CCOCC2)CC1Cc1ccccc1 (single isomer, unassigned; 32) [listing 1 of 2 here]	> 62	–	–	–
CCCCCOc1ccc(CCc2nc3cc(-c4c(C)noc4C)ccc3n2CCN2CCOCC2)cc1	10	6.9 µM	690 nM	–
Cc1noc(C)c1-c1ccc2c(c1)nc1n2[C@H](CN2CCOCC2)CC1Cc1ccccc1 (single isomer, unassigned; 32) [listing 2 of 2 here]	–	> 80 µM	1300 nM	–
Cc1noc(C)c1-c1ccc2c(c1)nc(CCc1cncc3ccccc13)n2CCN1CCOCC1	7	16.8 µM	2500 nM	–
CCc1noc(C)c1-c1ccc2c(c1)nc(CCc1ccccc1)n2CCN1CCOCC1	–	6 µM	310 nM	–
Cc1nc(C)n(-c2ccc3c(c2)nc(CCc2ccccc2)n3CCN2CCOCC2)n1	–	> 120 µM	> 30000 nM	–
Cc1noc(C)c1-c1ccc2c(c1)nc1n2[C@H](CN2CCOCC2)CC1Cc1ccccc1 (single isomer, unassigned; 31) [listing 1 of 2 here]	4	–	–	–
Cc1noc(C)c1-c1ccc2c(c1)nc(CCc1ccccc1)n2CC(=O)N1CCOCC1	37	13.2 µM	360 nM	–
CCCCOc1ccc(CCc2nc3cc(-c4c(C)noc4C)ccc3n2CCN2CCOCC2)cc1	43	11.2 µM	260 nM	–
COc1ccc(CCc2nc3cc(-c4c(C)noc4C)ccc3n2C[C@H](C)N2CCOCC2)cc1Cl	–	–	–	IC50 [9]: 5.85 µM
COc1ccc(CCc2nc3cc(-c4c(C)noc4C)ccc3n2CCN2CCOCC2)cc1OC	20	9.4 µM	470 nM	–
COc1ccc(CCc2nc3cc(-c4c(C)noc4C)ccc3n2CCN2CCOCC2)c(OC)c1	35	8.3 µM	240 nM	–
COc1ccc([C@H]2OCC[C@@H]2c2nc3cc(-c4c(C)noc4C)ccc3n2CCN2CCOCC2)cc1	67	9.4 µM	140 nM	–
Cc1noc(C)c1-c1ccc2c(c1)nc(COc1ccccc1)n2CCN1CCOCC1	36	14.4 µM	400 nM	–
COc1ccc(CCc2c(C#N)c3cc(-c4c(C)noc4C)ccc3n2CCN2CCOCC2)cc1	> 240	> 120 µM	500 nM	–
Cc1n[nH]c(C)c1-c1ccc2c(c1)nc(CCc1ccccc1)n2CCN1CCOCC1	–	> 10 µM	2400 nM	–
COc1ccccc1CCc1nc2cc(-c3c(C)noc3C)ccc2n1CCN1CCOCC1	14	13.9 µM	980 nM	–
COc1ccc(CCc2cc3cc(-c4c(C)noc4C)ccc3n2CCN2CCOCC2)cc1	–	> 120 µM	1500 nM	–

Continued by falling IC50 [1], values first:

Ratio IC50 (Homo sapiens)	IC50 [1]	IC50 (CREB-binding protein)	Structure (SMILES)	further results
7.4	5.8 µM	780 nM	Cc1noc(C)c1-c1ccc2c(c1)nc(CCc1cccnc1)n2CCN1CCOCC1	–
31	4.9 µM	160 nM	Cc1noc(C)c1-c1ccc2c(c1)nc(CCc1ccc3ccccc3n1)n2CCN1CCOCC1	–
16	4.9 µM	300 nM	Cc1noc(C)c1-c1ccc2c(c1)nc(CCc1ccc(C#N)cc1)n2CCN1CCOCC1	–
15	4.6 µM	310 nM	COc1cccc(CCc2nc3cc(-c4c(C)noc4C)ccc3n2CCN2CCOCC2)c1	–
23	4.5 µM	200 nM	Cc1noc(C)c1-c1ccc2c(c1)nc(CCc1ccc(OC(C)C)cc1)n2CCN1CCOCC1	–
20	4.3 µM	210 nM	Cc1noc(C)c1-c1ccc2c(c1)nc(CCc1ccc(N(C)C)cc1)n2CCN1CCOCC1	–
17	4.1 µM	240 nM	Cc1noc(C)c1-c1ccc2c(c1)nc(CCc1ccccc1)n2CCN1CCOCC1	–
10	4.1 µM	400 nM	Cc1noc(C)c1-c1ccc2c(c1)nc(CCc1ccncc1)n2CCN1CCOCC1	–
–	3.9 µM	500 nM	CCn1cc(-c2ccc3c(c2)nc(CCc2ccccc2)n3CCN2CCOCC2)ccc1=O	–
38	3.4 µM	90 nM	Cc1noc(C)c1-c1ccc2c(c1)nc(CCc1ccc(N)cc1)n2CCN1CCOCC1	–
10	3.2 µM	330 nM	Cc1noc(C)c1-c1ccc2c(c1)nc(CCc1ccccn1)n2CCN1CCOCC1	–
–	2 µM	450 nM	Cc1noc(C)c1-c1ccc2c(c1)nc1n2[C@H](CN2CCOCC2)CC1Cc1ccccc1 (single isomer, unassigned; 31) [listing 2 of 2 here]	–
12	1.6 µM	130 nM	Cc1noc(C)c1-c1ccc2c(c1)nc(-c1cnn3c1CCC3)n2CCN1CCOCC1	–
7	1.4 µM	200 nM	CC(=O)Nc1ccc(CCc2nc3cc(-c4c(C)noc4C)ccc3n2CCN2CCOCC2)cc1	–
6	0.49 µM	76 nM	Cc1noc(C)c1-c1ccc2c(c1)nc([C@@H]1CCO[C@H]1c1ccccc1)n2CCN1CCOCC1	–
